Data published in the supplement of paper PMC10307832.

Experiments:
Assay in all cases: relative viability (nuclei count vs DMSO), 5 days (fraction); higher = more cells survive
[1] = compound: CCOC1=CC=CC=C1N=NC2=C(NN(C2=O)C3=NC(=CS3)C4=CC=CC=C4)C [BAM7] + Nc1nc2[nH]cc(CCc3ccc(C(=O)N[C@@H](CCC(=O)O)C(=O)O)cc3)c2c(=O)[nH]1 [Pemetrexed] (partner 0.2 µM)
Outline: (§1)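 Lung cancer cell lines were pin-tool dosed in 1536-well plates on the day after seeding, with either a lone drug or a fixed anchor-drug dose plus five library-drug doses (not always all listed) in √10 steps. Nuclei were counted on 4× images after 5 days. Relative viability is the ratio of treated-well to vehicle-well nuclei counts, with each value a median of duplicate plates.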

[2] = compound: CCn1c(-c2nonc2N)nc2c(C#CC(C)(C)O)ncc(OC[C@H]3CCCNC3)c21 + COc1cccc2cc(-c3nc([C@H]4CC[C@H](C(=O)O)CC4)n4ncnc(N)c34)[nH]c12 [OSI-027] (partner 0.5 µM)
Outline: as §1

[3] = compound: CCn1c(-c2nonc2N)nc2c(C#CC(C)(C)O)ncc(OC[C@H]3CCCNC3)c21 + Nc1ncn([C@H]2C[C@H](O)[C@@H](CO)O2)c(=O)n1 [Decitabine] (partner 2 µM)
Outline: as §1

[4] = compound: CCn1c(-c2nonc2N)nc2c(C#CC(C)(C)O)ncc(OC[C@H]3CCCNC3)c21 + O=C(c1cc(Cc2n[nH]c(=O)c3ccccc23)ccc1F)N1CCN(C(=O)C2CC2)CC1 [Olaparib] (partner 8 µM)
Outline: as §1

| Cell Line | relative viability ([1]; first compound 0.5 µM) | relative viability ([1]; first compound 5 µM) | relative viability ([1]; first compound 15.81 µM) | relative viability ([1]; first compound 50 µM) | relative viability ([2]; first compound 0.1 µM) | relative viability ([2]; first compound 0.3162 µM) | relative viability ([2]; first compound 1 µM) | relative viability ([3]; first compound 0.01 µM) | relative viability ([3]; first compound 0.03162 µM) | relative viability ([3]; first compound 0.1 µM) | relative viability ([3]; first compound 0.3162 µM) | relative viability ([3]; first compound 1 µM) | relative viability ([4]; first compound 0.01 µM) | relative viability ([4]; first compound 0.03162 µM) | relative viability ([4]; first compound 0.1 µM) | relative viability ([4]; first compound 0.3162 µM) | relative viability ([4]; first compound 1 µM) | relative viability ([2]; first compound 0.01 µM) | relative viability ([2]; first compound 0.03162 µM) |
| --- | --- | --- | --- | --- | --- | --- | --- | --- | --- | --- | --- | --- | --- | --- | --- | --- | --- | --- | --- |
| HCC-44 | 0.648 | 0.642 | 0.635 | 0.63 | 0.484 | 0.372 | 0.499 | 0.957 | 0.888 | 0.902 | 0.968 | 0.985 | 0.995 | 1.02 | 0.977 | 0.955 | 0.994 | – | – |
| HCC-827 | 0.27 | 0.25 | 0.28 | 0.247 | 0.698 | 0.639 | 0.667 | 0.348 | 0.319 | 0.331 | 0.308 | 0.308 | 0.602 | 0.671 | 0.661 | 0.622 | 0.683 | 0.74 | 0.769 |
| NCI-H1623 | – | – | – | – | 0.485 | 0.438 | 0.395 | – | – | – | – | – | – | – | – | – | – | 0.391 | 0.423 |
| NCI-H2347 | 0.426 | 0.424 | 0.422 | 0.415 | – | 0.466 | 0.336 | 0.603 | 0.575 | 0.616 | 0.577 | 0.605 | 0.567 | 0.512 | 0.6 | 0.608 | 0.549 | 0.419 | 0.42 |
| PC-14 | 0.128 | 0.129 | 0.142 | 0.165 | 0.797 | 0.499 | 0.613 | 0.25 | 0.2 | 0.222 | 0.197 | 0.29 | 0.309 | 0.244 | 0.34 | 0.378 | 0.412 | 0.706 | 0.968 |
| NCI-H1651 | 0.548 | 0.586 | 0.639 | 0.569 | 0.723 | 0.563 | 0.9 | 0.582 | 0.608 | 0.652 | 0.597 | 0.663 | 0.194 | 0.189 | 0.197 | 0.185 | 0.215 | 0.719 | 0.676 |
| HARA | 0.228 | 0.244 | 0.222 | 0.292 | 0.368 | 0.472 | 0.459 | 0.508 | 0.486 | 0.656 | 0.551 | 0.498 | 0.909 | 0.903 | 0.808 | 0.687 | 0.763 | 0.5 | 0.575 |
| NCI-H1650 | 0.336 | 0.399 | 0.399 | 0.354 | 0.508 | 0.421 | 0.359 | 0.355 | 0.455 | 0.522 | 0.208 | 0.442 | 0.782 | 0.837 | 0.893 | 0.761 | 0.738 | 0.641 | 0.625 |
| NCI-H1395 | 0.856 | 0.91 | 0.857 | 1.07 | 0.552 | 0.556 | 0.555 | 0.819 | 0.735 | 0.742 | 0.583 | 0.677 | 0.464 | 0.412 | 0.472 | 0.433 | 0.372 | 0.496 | 0.597 |
| LU99A | 0.146 | 0.18 | 0.173 | 0.198 | 0.283 | 0.267 | 0.282 | 0.884 | 0.971 | 0.866 | 0.826 | 0.883 | 0.282 | 0.312 | 0.251 | 0.258 | 0.288 | 0.284 | 0.298 |
| NCI-H1355 | 1.08 | 0.978 | 1 | 1.01 | 0.378 | 0.393 | 0.424 | 0.339 | 0.346 | 0.385 | 0.324 | 0.355 | 0.689 | 0.774 | 0.734 | 0.709 | 0.735 | 0.451 | 0.379 |
| HCC-78 | 0.929 | 0.913 | 0.963 | 0.863 | 0.325 | 0.331 | 0.341 | 0.628 | 0.627 | 0.674 | 0.709 | 0.543 | 0.739 | 0.732 | 0.827 | 0.794 | 0.564 | 0.405 | 0.386 |
| NCI-H1563 | 0.778 | 0.853 | 0.813 | 0.633 | 0.686 | 0.688 | 0.666 | – | – | – | – | – | – | – | – | – | – | 0.73 | 0.783 |
| HCC-15 | 0.225 | 0.216 | 0.22 | 0.227 | 0.626 | 0.575 | 0.595 | 0.695 | 0.648 | 0.637 | 0.558 | 0.571 | 0.691 | 0.735 | 0.803 | 0.672 | 0.628 | 0.576 | 0.602 |
| EKVX | 0.425 | 0.409 | 0.349 | 0.377 | 0.678 | 0.686 | 0.752 | 0.325 | 0.37 | 0.369 | 0.347 | 0.337 | 0.89 | 0.986 | 0.926 | 0.768 | 0.757 | 0.685 | 0.671 |
| NCI-H2087 | 0.671 | 0.627 | 0.653 | 0.646 | 0.652 | 0.477 | 0.467 | 0.327 | – | 0.283 | 0.208 | 0.326 | 0.528 | – | 0.533 | 0.569 | 0.543 | 0.479 | 0.522 |
| LK-2 | 0.277 | 0.249 | 0.32 | 0.266 | 0.179 | 0.218 | 0.173 | 0.267 | 0.302 | 0.294 | 0.312 | 0.307 | 0.641 | 0.566 | 0.645 | 0.865 | 0.72 | 0.199 | 0.212 |
| NCI-H1437 | 0.308 | 0.304 | 0.33 | 0.372 | 0.885 | 0.758 | 0.897 | 0.558 | 0.541 | 0.564 | 0.611 | 0.627 | 0.633 | 0.648 | 0.64 | 0.605 | 0.625 | 0.815 | 0.951 |
